In US7994116B2, “Methods for reduction of adhesion formation using cytokine inhibitors” (Pharmasurgics In Sweden AB, priority 2002, dated 2011):

Experiments:
TNF = settings: following single administration in the dosage used (4 mg/kg); cited from earlier work
[1] = system: rats with a standardized laminectomy; assay: laminectomy model on the rat, infliximab treatment: wound healing and scar formation; type: in vivo; settings: laminectomy of 4th lumbar vertebra, 4 mg/kg intraperitoneal
Method: Four rats were anaesthetized with a standardized combination of pentobarbital and diazepam. The skin on the back was shaved. Through a midline incision, a laminectomy of the 4th lumbar vertebra was performed. The spinal muscles and the skin was sutured. Two rats received an intraperitoneal injection of 4 mg/kg of infliximab. Infliximab is a monoclonal antibody towards TNF with an inhibiting action with a duration of 1-2 months following single administration in the dosage used. The other two rats received an intraperitoneal injection of saline. After 2 weeks, the rats were reanaesthesized and wound healing and scar formation were evaluated by a person being unaware of the experimental protocol. Wound healing was considered normal in both groups. […] In the non-treated group, there was a somewhat more dense lump of connective tissue that was adherent to the spinal dura mater.

## infliximab
TNF
  duration of inhibiting action towards TNF: 1-2 months
[1]; after 2 weeks, saline group: adherent to the dura mater
  adhesion of connective tissue to the spinal dura mater: did not adhere to the spinal dura mater and was easy to remove
[1]; after 2 weeks, saline group: somewhat more dense lump of connective tissue
  scar formation: tissue filling the previous location of the lamina: soft connective tissue
[1]; evaluated after 2 weeks, blinded
  wound healing: normal
